Test results as given in patent US20170150719A1, “FUNGICIDAL PYRAZOLES AND THEIR MIXTURES” (E I DU PONT DE NEMOURS AND COMPANY, priority 2010, published 2017).
Marks after values point to notes of the source that are not given here.

Columns and labels:
[1] = tested on: Blumeria graminis f. sp. tritici; assay: Test I: wheat powdery mildew, preventive spray on wheat seedlings, visual disease rating; details: for Test I rating (% disease control) / Test I rating (% disease control), marked *: wheat powdery mildew, preventive spray; for Test I rating (% disease control): rating without asterisk; for pest or weed control at 40 µg/mL: read-out: Test I rating (% disease control), marked *, wheat powdery mildew, preventive spray; for pest or weed control at 40 µg/mL / Test I rating (% disease control), marked *: rating marked with asterisk (*), other test suspension concentration than unmarked ratings
Botrytis cinerea = assay: Test A: tomato Botrytis, preventive spray on tomato seedlings, visual disease rating; details: for Test A rating (% disease control) / Test A rating (% disease control), marked *: tomato Botrytis, preventive spray; for Test A rating (% disease control): 0 = no control relative to controls, rating without asterisk; for pest or weed control at 40 µg/mL: read-out: Test A rating (% disease control), marked *, tomato Botrytis, preventive spray; for pest or weed control at 40 µg/mL / Test A rating (% disease control), marked *: rating marked with asterisk (*), other test suspension concentration than unmarked ratings
[2] = tested on: Puccinia recondita f. sp. tritici; assay: Test H: wheat leaf rust, preventive spray on wheat seedlings, visual disease rating; details: for Test H rating (% disease control) / Test H rating (% disease control), marked *: wheat leaf rust, preventive spray; for Test H rating (% disease control): rating without asterisk; for pest or weed control at 40 µg/mL: read-out: Test H rating (% disease control), marked *, wheat leaf rust, preventive spray; for pest or weed control at 40 µg/mL / Test H rating (% disease control), marked *: rating marked with asterisk (*), other test suspension concentration than unmarked ratings
Septoria tritici = assay: Test F: wheat leaf blotch, preventive spray on wheat seedlings, visual disease rating; assay type: in vivo; parameters: pest or weed control: dose or concentration left out as unconfirmed; details: for Test F rating (% disease control) / pest or weed control / Test F rating (% disease control), marked *: preventive spray; for Test F rating (% disease control): rating without asterisk; for pest or weed control / Test F rating (% disease control), marked *: rating marked with asterisk (*), other test suspension concentration than unmarked ratings
Description: A hyphen (-) indicates no test results.

Septoria nodorum = assay: Test E: Septoria glume blotch, preventive spray on wheat seedlings, visual disease rating; details: Septoria glume blotch on wheat, preventive spray; rating marked with asterisk (*), other test suspension concentration than unmarked ratings
[3] = Blumeria graminis, in Triticum aestivum
[4] = Botrytis cinerea, in Solanum lycopersicum

SMILES | Test I rating (% disease control) ([1]; 100 = 100% disease control) [%] | Test A rating (% disease control) (Botrytis cinerea; 100 = 100% disease control) [%] | Test H rating (% disease control) ([2]; 100 = 100% disease control) [%] | Test F rating (% disease control) (Septoria tritici; 100 = 100% disease control) [%] | pest or weed control at 40 µg/mL [1, 3] [%] | pest or weed control at 40 µg/mL (Botrytis cinerea; [4]) [%] | pest or weed control at 40 µg/mL [2] [%] | pest or weed control (Septoria tritici; Zymoseptoria tritici) [%] | other results
Cc1nn(C)c(Nc2c(F)cc(Cl)cc2F)c1-c1ccc(C#N)cc1F [Compound 150, 4-[5-[(4-chloro-2,6-difluorophenyl)amino]-1,3-dimethyl-1H-pyrazol-4-yl]-3-fluorobenzonitrile] |  |  |  |  |  |  |  |  | pest or weed control at 200 µg/mL ([1]; Blumeria graminis, in Triticum aestivum, read-out: Test I rating (disease control), wheat powdery mildew, 100 = 100% disease control, 0 = no disease control relative to the controls): 100%; pest or weed control at 200 µg/mL (Botrytis cinerea; Botrytis cinerea, in Solanum lycopersicum, read-out: Test A rating (disease control), tomato Botrytis, 100 = 100% disease control, 0 = no disease control relative to the controls): 100%; pest or weed control at 200 µg/mL ([2]; read-out: Test H rating (disease control), wheat leaf rust, sprayed the day before inoculation, 100 = 100% disease control, 0 = no disease control): 100%; pest or weed control at 200 µg/mL (Septoria tritici; Zymoseptoria tritici, 100 = 100% disease control, 0 = no disease control relative to the controls): 100%
Cc1nn(C)c(Nc2ccc(F)cc2Cl)c1-c1ccc(C#N)cc1F [Compound 248] | 99 | 99 | 99 | 100 |  |  |  |  | 
COc1ccc(-c2c(C)nn(C)c2Nc2c(C)cccc2Cl)c(F)c1 [Compound 257, N-(2-chloro-6-methylphenyl)-4-(2-fluoro-4-methoxyphenyl)-1,3-dimethyl-1H-pyrazol-5-amine] |  |  |  |  | 27 | 100 | 63 | 100 | Test E rating (% disease control), marked * (Septoria nodorum): 31* %
COc1ccc(-c2c(C)nn(C)c2Nc2c(C)cccc2Br)c(F)c1 [Compound 258, N-(2-bromo-6-methylphenyl)-4-(2-fluoro-4-methoxyphenyl)-1,3-dimethyl-1H-pyrazol-5-amine] |  |  |  |  | 0 | 100 | 9 | 100 | Test E rating (% disease control), marked * (Septoria nodorum): 0* %
COc1ccc(-c2c(C)nn(C)c2Nc2c(C)cccc2F)c(F)c1 [Compound 259, 4-(2-fluoro-4-methoxyphenyl)-N-(2-fluoro-6-methylphenyl)-1,3-dimethyl-1H-pyrazol-5-amine] |  |  |  |  | 90 | 100 | 82 | 100 | Test E rating (% disease control), marked * (Septoria nodorum): 0* %
COc1ccc(-c2c(C)nn(C)c2Nc2c(F)cccc2Cl)c(F)c1 [Compound 260, N-(2-chloro-6-fluorophenyl)-4-(2-fluoro-4-methoxyphenyl)-1,3-dimethyl-1H-pyrazol-5-amine] |  |  |  |  | 90 | 100 | 85 | 100 | Test E rating (% disease control), marked * (Septoria nodorum): 0* %
COc1ccc(-c2c(C)nn(C)c2Nc2c(F)cccc2Br)c(F)c1 [Compound 261, N-(2-bromo-6-fluorophenyl)-4-(2-fluoro-4-methoxyphenyl)-1,3-dimethyl-1H-pyrazol-5-amine] |  |  |  |  | 95 |  | 97 | 100 | Test E rating (% disease control), marked * (Septoria nodorum): 0* %
COc1ccc(-c2c(C)nn(C)c2Nc2c(C)cccc2Cl)c(Cl)c1 [Compound 262, 4-(2-chloro-4-methoxyphenyl)-N-(2-chloro-6-methylphenyl)-1,3-dimethyl-1H-pyrazol-5-amine] |  |  |  |  | 79 | 97 | 85 | 100 | Test E rating (% disease control), marked * (Septoria nodorum): 0* %
COc1ccc(-c2c(C)nn(C)c2Nc2c(C)cccc2Br)c(Cl)c1 [Compound 263, N-(2-bromo-6-methylphenyl)-4-(2-chloro-4-methoxyphenyl)-1,3-dimethyl-1H-pyrazol-5-amine] |  |  |  |  |  | 99 | 79 | 100 | Test I rating (% disease control), marked * [1]: 13* %; Test E rating (% disease control), marked * (Septoria nodorum): 0* %
Cc1cccc(C)c1Nc1c(-c2ccc(F)cc2F)c(C)nn1C [Compound 270, 4-(2,4-difluorophenyl)-N-(2,6-dimethylphenyl)-1,3-dimethyl-1H-pyrazol-5-amine] |  |  |  |  | 91 | 98 | 41 | 100 | 
Cc1cccc(C)c1Nc1c(-c2ccc(F)cc2Cl)c(C)nn1C [Compound 271, 4-(2-chloro-4-fluorophenyl)-N-(2,6-dimethylphenyl)-1,3-dimethyl-1H-pyrazol-5-amine] |  |  |  |  | 98 | 99 | 97 | 100 | 
Cc1cccc(Cl)c1Nc1c(-c2ccc(F)cc2Br)c(C)nn1C [Compound 276, 4-(2-bromo-4-fluorophenyl)-N-(2-chloro-6-methylphenyl)-1,3-dimethyl-1H-pyrazol-5-amine] |  |  |  |  | 92 | 100 | 99 | 100 | 
Cc1nn(C)c(Nc2ccc(F)cc2Cl)c1-c1ccc(Br)cc1F [compound 232] | 99 | 79 | 90 | 100 |  |  |  |  | 
Cc1nn(C)c(Nc2c(Cl)cc(F)cc2Cl)c1-c1ccc(Br)cc1F [compound 233] | 89 | 36 | 91 | 100 |  |  |  |  | 
Cc1nn(C)c(Nc2c(F)cc(F)cc2Cl)c1-c1ccc(Br)cc1F [compound 234] | 79 | 97 | 91 | 100 |  |  |  |  | 
Cc1nn(C)c(Nc2c(F)cc(F)cc2Br)c1-c1ccc(Br)cc1F [compound 235] | 90 | 99 | 96 | 100 |  |  |  |  | 
Cc1nn(C)c(Nc2c(F)cc(Cl)cc2F)c1-c1ccc(Br)cc1F [compound 236] | 0 | 47 | 28 | 100 |  |  |  |  | 
Cc1nn(C)c(Nc2c(F)cc(Cl)cc2Cl)c1-c1ccc(Br)cc1F [compound 237] | 95 | 99 | 92 | 100 |  |  |  |  | 
Cc1nn(C)c(Nc2ccccc2Br)c1-c1ccc(F)cc1Br [compound 242] |  |  |  |  |  |  |  |  | Test I rating (% disease control), marked * [1]: 99* %; Test A rating (% disease control), marked * (Botrytis cinerea): 99* %; Test H rating (% disease control), marked * [2]: 96* %; Test F rating (% disease control), marked * (Septoria tritici): 100* %
Cc1nn(C)c(Nc2ccccc2I)c1-c1ccc(F)cc1Br [compound 243] | 100 | 100 | 99 | 100 |  |  |  |  | 
Cc1nn(C)c(Nc2ccccc2I)c1-c1ccc(F)cc1F [compound 246] | 99 | 100 | 98 | 100 |  |  |  |  | 
Cc1nn(C)c(Nc2c(Cl)cc(F)cc2Cl)c1-c1ccc(C#N)cc1F [compound 249] | 92 | 100 | 98 | 100 |  |  |  |  | 
Cc1nn(C)c(Nc2c(F)cc(F)cc2C#N)c1-c1ccc(C#N)cc1F [compound 250] | 89 | 0 | 100 | 100 |  |  |  |  | 
Cc1nn(C)c(Nc2c(Cl)cccc2Cl)c1-c1ccc(F)cc1F [compound 251] | 100 | 100 | 100 | 100 |  |  |  |  | 
Cc1nn(C)c(Nc2c(Cl)cccc2Cl)c1-c1ccc(F)cc1Cl [compound 255] |  |  |  |  |  |  |  |  | Test I rating (% disease control), marked * [1]: 81* %; Test A rating (% disease control), marked * (Botrytis cinerea): 100* %; Test H rating (% disease control), marked * [2]: 99* %; Test F rating (% disease control), marked * (Septoria tritici): 100* %
Cc1nn(C)c(Nc2c(Cl)cccc2Cl)c1-c1ccc(F)cc1Br [compound 256] |  |  |  |  |  |  |  |  | Test I rating (% disease control), marked * [1]: 64* %; Test A rating (% disease control), marked * (Botrytis cinerea): 99* %; Test H rating (% disease control), marked * [2]: 95* %; Test F rating (% disease control), marked * (Septoria tritici): 100* %
Cc1nn(C)c(Nc2ccccc2Cl)c1-c1ccc(F)cc1Br [compound 272] | 100 | 100 | 99 | 100 |  |  |  |  | 
